Data published in patent US6521179B1, “Sterilization” (Biomedical Design, Inc., priority 1999, dated 2003).

Tests used:
[1] = system: Bacillus Subtilis (ATCC 9372)spores; experiment: Sterilization of spores inoculated in cups with cross-linked porcine heart valve leaflets (Example 1); type: cell-based; details: EDC 25 mM, 50 mM and 70 mM, 100 mM ethanolamine, 20% isopropyl alcohol, HEPES pH 6.5, 40° C., after one day
Description: When porcine aortic roots that are fixed are employed, they are cross-linked according to the method described in U.S. Pat. No. 5,447,536 or glutaraldehyde-fixed or cross-linked or fixed with any other method used to preserve tissue. After fixation, the tissue is stored in 10 mM HEPES, 0.85% NaCl, 20% isopropyl alcohol, pH 7.4, at 4° C. The sterility tests described in the following examples are conducted in the presence of bovine pericardium or porcine heart valve tissue. After such tissue is inoculated with microorganisms for test purposes and then submitted to sterilization, the solution is filtered through a 0.45 micron filter attached to a funnel (filter funnel). The tissue is washed for 20 minutes in a reciprocating shaker in the presence of peptone water containing Tween 80 in order to extract all indigenous spores or microorganisms from the tissue. This solution is then filtered through the same respective filter. The filters are then rinsed with peptone water to eliminate residual chemicals on the membrane that may prevent growth of the organisms tested. The membrane filters are incubated on solid agar TSA plates (Millipore) at about 32° to 33° C., e.g. 32.5° C. All microbiological testing is performed in a biological laminar flow hood to prevent contamination. […]

[2] = system: spores Bacillus subtilis; experiment: Sterilization efficacy of EDC with blocking agents, spores in glass ampoules (Example 3); type: cell-based; details: EDC in HEPES buffer containing 20% isopropyl alcohol, in the presence or absence of tissue
Description: EDC sterilization in HEPES buffer containing 20% isopropyl alcohol, carried out either in the presence or in the absence of tissue, leads to complete kill of the spores Bacillus subtilis. The following experiment was designed to test whether the sterilization efficacy of EDC remains substantially unaffected by the presence of […]. […] After 10 minutes, 10 mL of Solutions A, B, C, D, E and F containing 25 mM EDC were added, the ampoules were heat-sealed and placed at 40° C. After 24 hours, the solutions from the ampoules were filtered to recover the spores, the filters were washed with 0.1% peptone water, and these were incubated on TSA plates for up to 10 days at 32° C. to 33° C., after which the colonies were enumerated.

[3] = EDC sterilization of pretreated cross-linked porcine aortic root tissue without lower alkanol; details: tissue pretreated with acetic anhydride or a mixture of TRIS and isopropylamine; absence of a lower alkanol

CCN=C=NCCCN(C)C.Cl [EDC, 1-ethyl-3(3-dimethylaminopropyl) carbodiimide hydrochloride]
kill of spores [1]: complete kill
kill of spores [2]: complete kill
sterilization of tissue samples [3]: effectively sterilized
